Results from patent US4374245A, “8-[3-(6-Fluoro-1,2-benzisoxazol-3-yl)propyl]- 1-phenyl-1,3,8-triazaspiro[4.5]decan-4-one” (Hoechst-Roussel Pharmaceuticals Inc., priority 1982, dated 1983).
Read-outs that look alike come from different tables or passages of the source.

What was measured:
[1] = tested on: phenyl-para-quinone induced writhes; test: animal or person; type: in vivo, mice; details: Mus musculus, sc, read-out: Analgesic Activity (ED50)
[2] = tested on: apomorphine-induced climbing; test: climbing mice assay (apomorphine-induced climbing, antipsychotic activity); type: in vivo, CK-1 male mice; details: Mus musculus, ip, read-out: Antipsychotic Activity ED50

Compound	ED50 [1] [mg/kg]	also measured
CCC(=O)O[C@](Cc1ccccc1)(c1ccccc1)[C@H](C)CN(C)C [propoxyphene]	3.9	
CCN1CCCC1CNC(=O)c1cc(S(N)(=O)=O)ccc1OC (stereo not shown) [sulpiride]		ED50 ([2]; mice, intraperitoneal, 30 minutes prior to apomorphine 1.5 mg/kg subcutaneously, climbing scored at 10, 20 and 30 minutes, linear regression): 4.5 mg/kg
CC(C)=CCN1CCC2(C)c3cc(O)ccc3CC1C2C (stereo not shown) [pentazocin]	1.3	
O=C(CCCN1CCC(O)(c2ccc(Cl)cc2)CC1)c1ccc(F)cc1 [haloperidol]		ED50 [2]: 0.11 mg/kg
